The source made the active and inactive calls. For most assays here, no stated cut-off is given here; in the data, actives have a measured Kd and inactives only a lower limit.
Experiments:
[1] = target: Tyrosine-protein kinase ABL1 (Homo sapiens, UniProt P00519)
[2] = target: T1, Serine/threonine-protein kinase TAO2 (Homo sapiens, UniProt Q9UL54)
T1 sequence (Q9UL54 whole entry): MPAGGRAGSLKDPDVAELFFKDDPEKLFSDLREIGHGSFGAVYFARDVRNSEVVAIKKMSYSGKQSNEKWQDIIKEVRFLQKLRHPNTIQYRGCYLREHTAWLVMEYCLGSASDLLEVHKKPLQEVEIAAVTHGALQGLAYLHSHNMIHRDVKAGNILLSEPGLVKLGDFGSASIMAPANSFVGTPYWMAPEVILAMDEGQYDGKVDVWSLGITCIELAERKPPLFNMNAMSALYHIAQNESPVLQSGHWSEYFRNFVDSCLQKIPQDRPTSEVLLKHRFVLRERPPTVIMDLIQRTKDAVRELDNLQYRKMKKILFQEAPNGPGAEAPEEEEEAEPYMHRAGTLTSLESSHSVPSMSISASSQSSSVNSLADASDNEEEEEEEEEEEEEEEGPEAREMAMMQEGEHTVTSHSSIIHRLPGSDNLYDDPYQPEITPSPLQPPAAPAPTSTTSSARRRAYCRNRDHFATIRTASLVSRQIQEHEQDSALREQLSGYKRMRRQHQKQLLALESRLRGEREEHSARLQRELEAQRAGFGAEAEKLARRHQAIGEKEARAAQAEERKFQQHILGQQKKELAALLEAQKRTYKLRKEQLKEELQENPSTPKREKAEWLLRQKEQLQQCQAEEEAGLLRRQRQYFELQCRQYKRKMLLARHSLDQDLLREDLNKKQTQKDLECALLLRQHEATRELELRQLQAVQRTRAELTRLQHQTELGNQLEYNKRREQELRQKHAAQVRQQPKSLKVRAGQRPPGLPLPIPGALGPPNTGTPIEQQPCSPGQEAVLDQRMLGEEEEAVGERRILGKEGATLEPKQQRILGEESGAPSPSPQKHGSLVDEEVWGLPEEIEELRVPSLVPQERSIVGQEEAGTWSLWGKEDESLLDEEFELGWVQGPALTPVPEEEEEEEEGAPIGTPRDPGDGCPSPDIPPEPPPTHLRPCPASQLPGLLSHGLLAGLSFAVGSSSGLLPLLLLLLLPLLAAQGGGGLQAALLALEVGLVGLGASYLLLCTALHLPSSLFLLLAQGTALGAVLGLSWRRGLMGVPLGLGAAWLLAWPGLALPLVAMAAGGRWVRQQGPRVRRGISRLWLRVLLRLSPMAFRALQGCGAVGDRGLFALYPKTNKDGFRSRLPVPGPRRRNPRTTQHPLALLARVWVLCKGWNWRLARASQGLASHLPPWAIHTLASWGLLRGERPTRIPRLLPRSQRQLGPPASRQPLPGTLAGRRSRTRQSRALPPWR

[3] = target: RAC-gamma serine/threonine-protein kinase (Homo sapiens, UniProt Q9Y243)
RAC-gamma serine/threonine-protein kinase, sequence (Q9Y243 whole entry): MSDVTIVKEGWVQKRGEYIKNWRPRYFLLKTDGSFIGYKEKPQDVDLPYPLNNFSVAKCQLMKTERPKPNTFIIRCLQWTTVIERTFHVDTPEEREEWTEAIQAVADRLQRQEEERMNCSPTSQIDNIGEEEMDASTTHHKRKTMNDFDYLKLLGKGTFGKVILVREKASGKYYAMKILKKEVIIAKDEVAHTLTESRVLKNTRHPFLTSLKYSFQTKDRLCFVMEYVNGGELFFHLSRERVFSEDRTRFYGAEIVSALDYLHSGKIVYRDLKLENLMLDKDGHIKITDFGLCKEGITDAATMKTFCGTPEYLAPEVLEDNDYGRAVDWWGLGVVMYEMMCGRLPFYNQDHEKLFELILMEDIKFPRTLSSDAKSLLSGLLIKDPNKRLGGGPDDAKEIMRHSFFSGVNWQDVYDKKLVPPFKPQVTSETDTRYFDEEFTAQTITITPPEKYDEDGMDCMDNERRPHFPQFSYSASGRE

[4] = target: T2, DNA replication licensing factor MCM4 (Homo sapiens, UniProt P33991)
T2 sequence (P33991 whole entry): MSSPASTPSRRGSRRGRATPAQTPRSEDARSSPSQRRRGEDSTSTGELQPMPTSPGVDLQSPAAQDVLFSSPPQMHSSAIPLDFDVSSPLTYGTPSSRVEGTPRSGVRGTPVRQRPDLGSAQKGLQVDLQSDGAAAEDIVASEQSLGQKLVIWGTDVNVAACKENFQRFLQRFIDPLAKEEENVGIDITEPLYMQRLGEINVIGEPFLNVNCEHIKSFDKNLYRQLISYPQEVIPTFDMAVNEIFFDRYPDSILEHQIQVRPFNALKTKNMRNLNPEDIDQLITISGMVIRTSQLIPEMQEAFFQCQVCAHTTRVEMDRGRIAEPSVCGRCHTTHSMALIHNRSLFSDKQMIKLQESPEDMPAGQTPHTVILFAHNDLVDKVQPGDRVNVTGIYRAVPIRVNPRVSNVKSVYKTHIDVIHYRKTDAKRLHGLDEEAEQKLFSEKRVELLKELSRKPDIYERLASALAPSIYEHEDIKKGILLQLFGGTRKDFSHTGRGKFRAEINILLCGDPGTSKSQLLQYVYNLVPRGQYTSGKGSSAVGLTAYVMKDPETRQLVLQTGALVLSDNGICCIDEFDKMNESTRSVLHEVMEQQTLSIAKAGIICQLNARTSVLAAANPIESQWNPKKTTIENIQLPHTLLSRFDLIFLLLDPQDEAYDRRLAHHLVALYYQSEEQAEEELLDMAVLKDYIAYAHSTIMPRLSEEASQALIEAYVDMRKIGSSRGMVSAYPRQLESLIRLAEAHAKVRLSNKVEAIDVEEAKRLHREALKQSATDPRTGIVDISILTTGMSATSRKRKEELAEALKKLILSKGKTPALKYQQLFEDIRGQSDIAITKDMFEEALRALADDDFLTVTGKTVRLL

TGF-beta receptor type-2 = TGF-beta receptor type-2 (Homo sapiens, UniProt P37173)
TGF-beta receptor type-2, sequence (P37173 whole entry): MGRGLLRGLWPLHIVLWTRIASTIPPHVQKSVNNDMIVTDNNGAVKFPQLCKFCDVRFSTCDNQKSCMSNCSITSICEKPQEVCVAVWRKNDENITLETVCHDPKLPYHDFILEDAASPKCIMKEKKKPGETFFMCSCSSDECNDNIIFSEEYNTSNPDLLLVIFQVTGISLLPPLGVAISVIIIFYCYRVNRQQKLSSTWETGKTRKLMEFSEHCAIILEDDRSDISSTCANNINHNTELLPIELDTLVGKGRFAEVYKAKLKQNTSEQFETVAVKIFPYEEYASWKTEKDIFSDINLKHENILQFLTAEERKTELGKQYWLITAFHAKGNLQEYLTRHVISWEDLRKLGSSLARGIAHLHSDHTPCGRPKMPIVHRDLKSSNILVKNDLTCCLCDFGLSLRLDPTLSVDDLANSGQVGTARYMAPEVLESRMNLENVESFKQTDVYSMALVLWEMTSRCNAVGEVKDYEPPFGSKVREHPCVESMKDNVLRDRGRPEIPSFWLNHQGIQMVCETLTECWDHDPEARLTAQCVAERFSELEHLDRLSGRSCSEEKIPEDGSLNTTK

[5] = target: T3, Serine/threonine-protein kinase ICK (Homo sapiens, UniProt Q9UPZ9)
T3 sequence (Q9UPZ9 whole entry): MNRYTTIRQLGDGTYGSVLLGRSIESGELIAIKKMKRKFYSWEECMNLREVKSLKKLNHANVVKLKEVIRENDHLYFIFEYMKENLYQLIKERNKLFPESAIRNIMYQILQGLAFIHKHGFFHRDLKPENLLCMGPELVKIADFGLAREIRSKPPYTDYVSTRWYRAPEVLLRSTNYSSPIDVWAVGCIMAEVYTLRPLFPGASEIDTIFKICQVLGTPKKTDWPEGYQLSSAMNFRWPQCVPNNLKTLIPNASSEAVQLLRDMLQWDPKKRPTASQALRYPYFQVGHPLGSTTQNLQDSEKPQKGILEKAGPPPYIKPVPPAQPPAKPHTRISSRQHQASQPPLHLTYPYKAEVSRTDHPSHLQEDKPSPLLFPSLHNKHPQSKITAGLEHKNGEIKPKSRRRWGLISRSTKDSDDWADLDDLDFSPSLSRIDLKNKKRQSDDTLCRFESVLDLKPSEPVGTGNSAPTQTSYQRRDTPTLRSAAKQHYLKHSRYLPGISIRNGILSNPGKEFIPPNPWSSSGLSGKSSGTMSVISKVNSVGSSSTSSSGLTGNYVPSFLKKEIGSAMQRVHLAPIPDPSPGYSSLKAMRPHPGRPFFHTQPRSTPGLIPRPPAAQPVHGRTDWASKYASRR

[6] = target: Dual specificity mitogen-activated protein kinase kinase 1 (Homo sapiens, UniProt Q02750)
Dual specificity mitogen-activated protein kinase kinase 1, sequence (Q02750 whole entry): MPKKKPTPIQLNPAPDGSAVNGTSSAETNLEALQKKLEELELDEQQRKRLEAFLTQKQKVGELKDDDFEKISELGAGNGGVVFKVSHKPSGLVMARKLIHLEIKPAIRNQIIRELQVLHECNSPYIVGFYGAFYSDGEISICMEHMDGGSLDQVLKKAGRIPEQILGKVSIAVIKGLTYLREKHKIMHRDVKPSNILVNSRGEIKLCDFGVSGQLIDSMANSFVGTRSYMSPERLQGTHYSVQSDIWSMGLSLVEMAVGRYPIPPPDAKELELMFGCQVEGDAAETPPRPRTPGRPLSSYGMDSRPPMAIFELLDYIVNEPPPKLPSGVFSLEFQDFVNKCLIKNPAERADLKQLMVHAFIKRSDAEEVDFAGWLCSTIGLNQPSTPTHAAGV

[7] = target: Rho-associated protein kinase 1 (Homo sapiens, UniProt Q13464)
Rho-associated protein kinase 1, sequence (Q13464 whole entry): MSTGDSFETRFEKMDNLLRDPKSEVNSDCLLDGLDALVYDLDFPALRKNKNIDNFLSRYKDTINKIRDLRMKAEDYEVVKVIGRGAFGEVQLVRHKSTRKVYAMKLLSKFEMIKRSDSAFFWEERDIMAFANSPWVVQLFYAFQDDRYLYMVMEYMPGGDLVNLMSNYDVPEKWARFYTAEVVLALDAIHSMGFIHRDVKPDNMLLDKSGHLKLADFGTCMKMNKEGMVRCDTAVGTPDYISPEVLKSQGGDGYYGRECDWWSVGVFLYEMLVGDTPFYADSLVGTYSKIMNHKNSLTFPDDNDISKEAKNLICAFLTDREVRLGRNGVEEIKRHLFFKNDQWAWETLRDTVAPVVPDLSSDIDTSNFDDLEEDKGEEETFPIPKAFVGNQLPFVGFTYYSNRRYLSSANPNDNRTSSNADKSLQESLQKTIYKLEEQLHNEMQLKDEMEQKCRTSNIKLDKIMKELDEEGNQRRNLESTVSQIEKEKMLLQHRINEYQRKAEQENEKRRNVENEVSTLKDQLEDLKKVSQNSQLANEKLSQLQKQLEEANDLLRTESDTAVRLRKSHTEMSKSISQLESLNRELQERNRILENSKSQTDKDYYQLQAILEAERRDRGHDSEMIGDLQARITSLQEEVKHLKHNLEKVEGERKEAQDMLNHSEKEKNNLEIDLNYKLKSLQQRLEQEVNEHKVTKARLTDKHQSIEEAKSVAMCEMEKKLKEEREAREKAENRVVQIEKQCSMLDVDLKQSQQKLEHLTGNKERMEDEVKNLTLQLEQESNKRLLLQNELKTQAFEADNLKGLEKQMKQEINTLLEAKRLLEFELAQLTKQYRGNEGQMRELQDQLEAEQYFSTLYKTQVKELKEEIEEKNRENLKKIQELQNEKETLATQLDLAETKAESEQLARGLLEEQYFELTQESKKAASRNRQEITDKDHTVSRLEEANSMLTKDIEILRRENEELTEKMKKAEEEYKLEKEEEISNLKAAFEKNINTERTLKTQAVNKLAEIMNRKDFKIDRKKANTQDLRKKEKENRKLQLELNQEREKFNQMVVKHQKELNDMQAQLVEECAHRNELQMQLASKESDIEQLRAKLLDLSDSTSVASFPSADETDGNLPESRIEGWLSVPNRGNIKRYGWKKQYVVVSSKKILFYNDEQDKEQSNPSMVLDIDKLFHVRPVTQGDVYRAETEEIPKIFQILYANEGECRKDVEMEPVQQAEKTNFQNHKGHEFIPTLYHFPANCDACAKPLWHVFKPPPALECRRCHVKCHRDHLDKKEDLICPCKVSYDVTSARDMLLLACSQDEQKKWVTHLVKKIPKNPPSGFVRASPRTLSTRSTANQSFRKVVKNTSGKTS

Tyrosine-protein kinase ABL1, sequence (P00519 whole entry): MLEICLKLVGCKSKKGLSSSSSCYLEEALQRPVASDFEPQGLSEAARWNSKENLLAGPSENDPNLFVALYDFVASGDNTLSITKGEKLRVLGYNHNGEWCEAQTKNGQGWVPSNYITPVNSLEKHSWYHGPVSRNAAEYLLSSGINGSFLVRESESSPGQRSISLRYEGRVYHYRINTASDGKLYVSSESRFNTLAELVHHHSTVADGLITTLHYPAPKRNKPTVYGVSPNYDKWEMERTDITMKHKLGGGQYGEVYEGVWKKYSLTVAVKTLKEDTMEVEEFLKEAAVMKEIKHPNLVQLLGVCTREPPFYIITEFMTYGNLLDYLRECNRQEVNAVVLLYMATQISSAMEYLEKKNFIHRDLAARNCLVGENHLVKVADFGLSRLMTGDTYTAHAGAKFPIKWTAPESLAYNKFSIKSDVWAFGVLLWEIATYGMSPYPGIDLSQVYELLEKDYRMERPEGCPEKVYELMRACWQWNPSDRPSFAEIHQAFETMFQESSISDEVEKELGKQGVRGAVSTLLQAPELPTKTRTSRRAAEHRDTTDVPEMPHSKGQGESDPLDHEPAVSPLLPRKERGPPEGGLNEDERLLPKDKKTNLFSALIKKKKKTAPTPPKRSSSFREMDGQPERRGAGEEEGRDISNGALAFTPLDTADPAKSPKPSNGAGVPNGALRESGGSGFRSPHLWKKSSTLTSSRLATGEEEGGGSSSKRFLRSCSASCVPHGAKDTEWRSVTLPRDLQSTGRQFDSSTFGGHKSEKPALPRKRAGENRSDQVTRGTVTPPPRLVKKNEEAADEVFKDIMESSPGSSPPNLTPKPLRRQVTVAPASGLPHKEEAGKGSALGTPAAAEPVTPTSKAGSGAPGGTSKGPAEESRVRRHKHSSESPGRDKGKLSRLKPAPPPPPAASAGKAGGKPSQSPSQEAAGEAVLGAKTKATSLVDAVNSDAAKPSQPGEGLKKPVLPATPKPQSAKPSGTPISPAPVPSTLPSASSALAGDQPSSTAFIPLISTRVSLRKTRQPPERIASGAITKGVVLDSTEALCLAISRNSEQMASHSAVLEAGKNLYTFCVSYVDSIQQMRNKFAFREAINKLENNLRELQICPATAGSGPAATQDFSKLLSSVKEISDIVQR

Row | Compound | Kd [1] | Kd [2] | Kd [3] | Kd [4] | Kd (TGF-beta receptor type-2) | Kd [5] | Kd [6] | Kd [7]
1 | C[C@@H]1CN(Cc2ccc(F)cc2)[C@@H](C)CN1C(=O)c1cc2c(C(=O)C(=O)N(C)C)cn(C)c2cc1Cl [TALMAPIMOD] | > 30 µM (inactive) | > 30 µM (inactive) | > 30 µM (inactive) | > 30 µM (inactive) | > 30 µM (inactive) | > 30 µM (inactive) | > 30 µM (inactive) | > 30 µM (inactive)
2 | CNC(=O)c1ccc(-c2cnc3ncc(Cc4ccc5ncccc5c4)n3n2)cc1F [CAPMATINIB] | > 30 µM (inactive) | > 30 µM (inactive) | > 30 µM (inactive) | > 30 µM (inactive) | > 30 µM (inactive) | > 30 µM (inactive) | > 30 µM (inactive) | > 30 µM (inactive)
3 | CNC(=O)CN1CCC(Oc2cc3c(Nc4cccc(Cl)c4F)ncnc3cc2OC)CC1 [SAPITINIB] | > 30 µM (inactive) | > 30 µM (inactive) | > 30 µM (inactive) | > 30 µM (inactive) | > 30 µM (inactive) | > 30 µM (inactive) | > 30 µM (inactive) | > 30 µM (inactive)
4 | Cc1ccc(S(=O)(=O)Nc2nc3ccccc3nc2Nc2ccc3nsnc3c2)cc1 | > 30 µM (inactive) | > 30 µM (inactive) | > 30 µM (inactive) | > 30 µM (inactive) | > 30 µM (inactive) | > 30 µM (inactive) | > 30 µM (inactive) | > 30 µM (inactive)
5 | CN1CCC(COc2cnc(-c3cccc(Cn4nc(-c5cccc(C#N)c5)ccc4=O)c3)nc2)CC1 [TEPOTINIB] | > 30 µM (inactive) | > 30 µM (inactive) | > 30 µM (inactive) | > 30 µM (inactive) | > 30 µM (inactive) | > 30 µM (inactive) | > 30 µM (inactive) | > 30 µM (inactive)
6 | O=C(c1ccc(F)c(F)c1Nc1ccc(I)cc1F)N1CC(O)([C@@H]2CCCCN2)C1 [COBIMETINIB] | > 30 µM (inactive) | > 30 µM (inactive) | > 30 µM (inactive) | > 30 µM (inactive) | > 30 µM (inactive) | > 30 µM (inactive) | 0.309 µM (active) | > 30 µM (inactive)
7 | CNC(=O)c1ccc(C)c(-n2c(C)cc(OCc3ccc(F)cc3F)c(Br)c2=O)c1 [PH-797804] | > 30 µM (inactive) | > 30 µM (inactive) | > 30 µM (inactive) | > 30 µM (inactive) | > 30 µM (inactive) | > 30 µM (inactive) | > 30 µM (inactive) | > 30 µM (inactive)
8 | CNC(=O)c1cc(Oc2ccc(NC(=O)Nc3ccc(Cl)c(C(F)(F)F)c3)c(F)c2)ccn1 [REGORAFENIB] | 0.753 µM (active) | > 30 µM (inactive) | > 30 µM (inactive) | > 30 µM (inactive) | > 30 µM (inactive) | > 30 µM (inactive) | > 30 µM (inactive) | > 30 µM (inactive)
9 | Cc1ccc(NC(=O)c2ccc(CN3CC[C@H](N(C)C)C3)c(C(F)(F)F)c2)cc1Nc1nccc(-c2cncnc2)n1 [BAFETINIB] | 0.026 µM (active) | > 30 µM (inactive) | > 30 µM (inactive) | > 30 µM (inactive) | > 30 µM (inactive) | > 30 µM (inactive) | > 30 µM (inactive) | > 30 µM (inactive)
10 | CCS(=O)(=O)N1CC(CC#N)(n2cc(-c3ncnc4[nH]ccc34)cn2)C1 [BARICITINIB] | > 30 µM (inactive) | > 30 µM (inactive) | > 30 µM (inactive) | > 30 µM (inactive) | > 30 µM (inactive) | > 30 µM (inactive) | > 30 µM (inactive) | 0.482 µM (active)
11 | Cc1c(F)cc(C(=O)NC2CC2)cc1-c1ccc(C(=O)NCC(C)(C)C)cn1 [LOSMAPIMOD] | > 30 µM (inactive) | > 30 µM (inactive) | > 30 µM (inactive) | > 30 µM (inactive) | > 30 µM (inactive) | > 30 µM (inactive) | > 30 µM (inactive) | > 30 µM (inactive)
12 | CC[C@@H]1C(=O)N(C)c2cnc(Nc3ccc(C(=O)N[C@H]4CC[C@H](N5CCN(CC6CC6)CC5)CC4)cc3OC)nc2N1C(C)C [VOLASERTIB] | > 30 µM (inactive) | > 30 µM (inactive) | > 30 µM (inactive) | > 30 µM (inactive) | > 30 µM (inactive) | > 30 µM (inactive) | > 30 µM (inactive) | > 30 µM (inactive)

Further lines, results first:

Row | Kd [1] | Kd [2] | Kd [3] | Kd [4] | Kd (TGF-beta receptor type-2) | Kd [5] | Kd [6] | Kd [7] | Compound
13 | 5.26 µM (active) | > 30 µM (inactive) | > 30 µM (inactive) | > 30 µM (inactive) | > 30 µM (inactive) | > 30 µM (inactive) | > 30 µM (inactive) | > 30 µM (inactive) | COc1cc(N2CCC(N3CCN(C)CC3)CC2)ccc1Nc1ncnc(Nc2ccccc2S(=O)(=O)C(C)C)n1 [ASP-3026]
14 | > 30 µM (inactive) | > 30 µM (inactive) | > 30 µM (inactive) | > 30 µM (inactive) | > 30 µM (inactive) | > 30 µM (inactive) | 18.5 µM (active) | > 30 µM (inactive) | O=C1NC(=O)/C(=C/c2ccc3nccc(-c4ccncc4)c3c2)S1 [GSK-1059615]
15 | > 30 µM (inactive) | > 30 µM (inactive) | > 30 µM (inactive) | > 30 µM (inactive) | > 30 µM (inactive) | > 30 µM (inactive) | > 30 µM (inactive) | > 30 µM (inactive) | CN1CCC(CNc2ccc3ncc(-c4cccc(OC(F)(F)F)c4)n3n2)CC1 [SGI-1776]
16 | > 30 µM (inactive) | > 30 µM (inactive) | > 30 µM (inactive) | > 30 µM (inactive) | > 30 µM (inactive) | > 30 µM (inactive) | > 30 µM (inactive) | > 30 µM (inactive) | Cc1cc([C@@H](C)Nc2ccccc2C(=O)O)c2nc(N3CCOCC3)cc(=O)n2c1 [AZD-6482]

From ChEMBL document CHEMBL3991601, “The target landscape of clinical kinase drugs” (Science, 2017)
